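Cultured in 96-well plates, cells were exposed to test compound for 48 hours across five concentrations. GI50 is the concentration that inhibits growth by half.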 Active and inactive are the calls of the source. Cut-off read from the data, not from the text of the source: active = GI50 up to about 1.1 µM and inactive = higher.
Tests used:
Test in all cases: NCI anticancer screen, dose series, 48 h
[1] = system: DU-145
[2] = system: OVCAR-4
[3] = system: ACHN
[4] = system: MDA-MB-231
[5] = system: NCI-H460
[6] = system: A498
[7] = system: HOP-62
[8] = system: KM12
[9] = system: OVCAR-8
[10] = system: SW-620
[11] = system: UACC-62
[12] = system: CAKI-1
[13] = system: SK-OV-3
[14] = system: RPMI-8226
[15] = system: HCT-116
[16] = system: SR
[17] = system: M14
[18] = system: Hs-578T
[19] = system: SK-MEL-28
[20] = system: HL-60
[21] = system: HT-29
[22] = system: K562
[23] = system: SF-539
[24] = system: UO-31
[25] = system: BT-549
[26] = system: NCI-H226
[27] = system: SN12C
[28] = system: MOLT-4
[29] = system: COLO 205
[30] = system: SNB-19
[31] = system: EKVX
[32] = system: SF-295
[33] = system: 786-0
[34] = system: SNB-75
[35] = system: NCI-H522
[36] = system: NCI-H23
[37] = system: RXF 393
[38] = system: HCT-15
[39] = system: TK-10
[40] = system: IGROV-1
[41] = system: SK-MEL-5
[42] = system: UACC-257
[43] = system: Malme-3M
[44] = system: OVCAR-3
[45] = system: T47D
[46] = system: CCRF-CEM
[47] = system: MDA-N
[48] = system: U-251
[49] = system: OVCAR-5
[50] = system: LOX IMVI
[51] = system: PC-3
[52] = system: HCC 2998
[53] = system: MDA-MB-435
[54] = system: MCF7
[55] = system: A549
[56] = system: SK-MEL-2
[57] = system: SF-268
[58] = system: NCI/ADR-RES

## COc1ccc2[nH]c3c(C)c4ccnc(NCCCN(C)CCCNc5ccc([N+](=O)[O-])c6[nH]c7ccccc7c(=O)c56)c4c(C)c3c2c1
[1]
  GI50: 0.628 µM (active)
[2]
  GI50: 0.132 µM (active)
[3]
  GI50: 0.0207 µM (active)
[4]
  GI50: 0.621 µM (active)
[5]
  GI50: 0.025 µM (active)
[6]
  GI50: 0.841 µM (active)
[7]
  GI50: 0.239 µM (active)
[8]
  GI50: 0.301 µM (active)
[9]
  GI50: 0.472 µM (active)
[10]
  GI50: 0.00811 µM (active)
[11]
  GI50: 0.82 µM (active)
[12]
  GI50: 0.466 µM (active)
[13]
  GI50: 0.76 µM (active)
[14]
  GI50: 0.0826 µM (active)
[15]
  GI50: 0.0145 µM (active)
[16]
  GI50: 0.0114 µM (active)
[17]
  GI50: 0.422 µM (active)
[18]
  GI50: 0.604 µM (active)
[19]
  GI50: 0.887 µM (active)
[20]
  GI50: 0.53 µM (active)
[21]
  GI50: 0.00813 µM (active)
[22]
  GI50: 0.00652 µM (active)
[23]
  GI50: 0.106 µM (active)
[24]
  GI50: 0.59 µM (active)
[25]
  GI50: 0.678 µM (active)
[26]
  GI50: 0.421 µM (active)
[27]
  GI50: 0.0524 µM (active)
[28]
  GI50: 0.005 µM (active)
[29]
  GI50: 0.0723 µM (active)
[30]
  GI50: 0.284 µM (active)
[31]
  GI50: 0.271 µM (active)
[32]
  GI50: 0.104 µM (active)
[33]
  GI50: 0.0244 µM (active)
[34]
  GI50: 0.743 µM (active)
[35]
  GI50: 0.0235 µM (active)
[36]
  GI50: 0.575 µM (active)
[37]
  GI50: 0.0396 µM (active)
[38]
  GI50: 0.0295 µM
[39]
  GI50: 0.018 µM (active)
[40]
  GI50: 0.0291 µM (active)
[41]
  GI50: 0.11 µM (active)
[42]
  GI50: 0.655 µM (active)
[43]
  GI50: 0.285 µM (active)
[44]
  GI50: 0.607 µM (active)
[45]
  GI50: 0.815 µM (active)
[46]
  GI50: 0.212 µM (active)
[47]
  GI50: 0.372 µM (active)
[48]
  GI50: 0.0887 µM (active)
[49]
  GI50: 0.607 µM (active)
[50]
  GI50: 0.14 µM (active)
[51]
  GI50: 0.426 µM (active)
[52]
  GI50: 0.0178 µM (active)
[53]
  GI50: 0.471 µM (active)
[54]
  GI50: 0.0667 µM (active)
[55]
  GI50: 0.0372 µM (active)
[56]
  GI50: 0.731 µM (active)
[57]
  GI50: 0.52 µM (active)
[58]
  GI50: 0.592 µM (active)

## O=c1[nH]c(=O)n(C2CC(O)C(CO)O2)cc1Oc1ccccc1 (stereo unspecified)
[1]
  GI50: > 100 µM (inactive)
[2]
  GI50: > 100 µM (inactive)
[3]
  GI50: > 100 µM (inactive)
[4]
  GI50: > 100 µM (inactive)
[5]
  GI50: > 100 µM (inactive)
[7]
  GI50: > 100 µM (inactive)
[8]
  GI50: > 100 µM (inactive)
[9]
  GI50: > 100 µM (inactive)
[11]
  GI50: > 100 µM (inactive)
[12]
  GI50: > 100 µM (inactive)
[13]
  GI50: > 100 µM (inactive)
[14]
  GI50: > 100 µM (inactive)
[15]
  GI50: > 100 µM (inactive)
[16]
  GI50: > 100 µM (inactive)
[17]
  GI50: > 100 µM (inactive)
[18]
  GI50: > 100 µM (inactive)
[19]
  GI50: > 100 µM (inactive)
[20]
  GI50: > 100 µM (inactive)
[21]
  GI50: > 100 µM (inactive)
[22]
  GI50: > 100 µM (inactive)
[24]
  GI50: > 100 µM (inactive)
[25]
  GI50: > 100 µM (inactive)
[26]
  GI50: > 100 µM (inactive)
[27]
  GI50: > 100 µM (inactive)
[28]
  GI50: > 100 µM (inactive)
[29]
  GI50: > 100 µM (inactive)
[30]
  GI50: > 100 µM (inactive)
[31]
  GI50: > 100 µM (inactive)
[32]
  GI50: 47.4 µM (inactive)
[33]
  GI50: > 100 µM (inactive)
[34]
  GI50: > 100 µM (inactive)
[35]
  GI50: > 100 µM (inactive)
[36]
  GI50: > 100 µM (inactive)
[37]
  GI50: > 100 µM (inactive)
[38]
  GI50: > 100 µM
[39]
  GI50: > 100 µM (inactive)
[40]
  GI50: > 100 µM (inactive)
[41]
  GI50: > 100 µM (inactive)
[42]
  GI50: > 100 µM (inactive)
[43]
  GI50: > 100 µM (inactive)
[44]
  GI50: > 100 µM (inactive)
[45]
  GI50: > 100 µM (inactive)
[46]
  GI50: > 100 µM (inactive)
[47]
  GI50: > 100 µM (inactive)
[48]
  GI50: > 100 µM (inactive)
[49]
  GI50: > 100 µM (inactive)
[50]
  GI50: > 100 µM (inactive)
[51]
  GI50: > 100 µM (inactive)
[53]
  GI50: > 100 µM (inactive)
[54]
  GI50: > 100 µM (inactive)
[55]
  GI50: > 100 µM (inactive)
[57]
  GI50: > 100 µM (inactive)
[58]
  GI50: > 100 µM (inactive)
